Laboratory results reported in US20250387359A1, “COMPOUNDS AND METHODS FOR THE TREATMENT OF PARASITIC INFECTIONS” (THE BOARD OF TRUSTEES OF THE UNIVERSITY OF ILLINOIS, priority 2019, published 2025).

Test system: C. parvum
Experiment: Real-time PCR quantification of C. parvum DNA in fecal samples of infected mice
Assay type: in vivo, Cryptosporidium parvum
Settings: for fecal C. parvum DNA load: Table 6, infected mice, multiplier printed in next cell
Method: In vivo testing of the anti-Cryptosporidium effect of CpLDH inhibitors. Gamma interferon knockout mice (B6.129S7-Ifng), 8 weeks of age, were purchased from Charles River, USA. The care and use of the mice was done following the guidelines of protocol number 17024 approved by the University of Illinois at Urbana-Champaign, USA. The animals were allowed to acclimatize for 1 week before experiments commenced. Stock solutions of recombinant CpLDH inhibitors reconstituted in DMSO were diluted in sterile distilled water to reduce the final amount of DMSO in the solution to less than 1% (v/v) before administering them to mice. Prior to testing the anti-Cryptosporidium effect of the inhibitors in mice, the tolerability of each inhibitor was tested by oral gavage using varying dosages (100-2000 mg/kg body weight) of each inhibitor in groups of mice (three mice for each dose) daily for 7 days. Mice were observed daily for signs of toxicity including changes from normal physical activity, respiration, body temperature, feeding, posture, fur condition or occurrence of death. […] The subsequent dosages of NSC10447 used in the mice infection assays were 250, 500 and 1000 mg/kg mouse body weight, while the NSC158011 dosages used were 100, 200 and 400 mg/kg mouse body weight. Mice were allocated to groups as follows: “Infected plus inhibitor treatment”; “Infected minus inhibitor treatment”; “Uninfected minus inhibitor treatment” and “Infected plus paromomycin treatment”. Each group contained at least three mice. Each mouse in the infection groups received 5,000 C. parvum oocysts (resuspended in 50 μl of PBS) by oral gavage. Mice were housed individually in cages lined with sterile gauze as bedding. One day post-infection (PI), daily oral gavage administration of recombinant CpLDH inhibitor or paromomycin commenced and continued for a total of 7 days. Untreated mice received an equivalent volume of sterile distilled water (containing DMSO equivalent to the amount administered in the inhibitor-treated group) by oral gavage. Fecal pellets were collected daily from each cage and placed in individual sterile 15 ml conical tubes. An equivalent volume of PBS containing a cocktail of penicillin (100 units/ml), streptomycin (100 μg/ml), chloramphenicol (34 μg/ml) and amphotericin (0.25 μg/ml) was added to the fecal samples and stored at 4° C. until use for quantification of C. parvum genomic DNA load. Three independent replicate infection assays were performed. At 9 days PI, mice were euthanized and 5 cm of the distal small intestine resected 2 cm anterior to the cecum and immediately submerged in 4% buffered formalin. The intestinal tissues were submitted for histopathology to the Veterinary Diagnostic Laboratory at the University of Illinois at Urbana-Champaign. Briefly, intestinal tissues preserved in 4% buffered formalin were washed in 70% ethanol and embedded in 1% agar and then processed for paraffin embedding. For hematoxylin and eosin staining, five μm transverse and cross sections were cut and processed and stained following standard procedures of the Veterinary Diagnostic Laboratory. Sections were imaged using a Zeiss microscope and images captured with a color camera.
Quantification of C. parvum shed in mice feces. Genomic DNA was extracted from individual fecal samples collected from mice at different days as described above. For each sample, 220 mg of homogenized feces were used to extract genomic DNA using the QIAamp PowerFecal DNA Kit (Qiagen, USA) following the manufacturer's instructions. Quantification of the amount of C. parvum 18s rRNA gene (GenBank accession number AF164102) was performed essentially as described previously (Int. J. Parasitol. 2018; 48(8), 649-656). Briefly, primers were used to generate a 240 bp amplicon from C. parvum genomic DNA by conventional PCR. […]

O=C1c2ccccc2C(=O)c2c(O)c(O)cc(O)c21 [NSC10447]
lower C. parvum DNA load in feces compared to infected untreated (NSC10447 at 250, 500 and 1000 mg/kg, day 3 until day 8): at least 50%
fecal C. parvum DNA load (NSC10447 250 mg/kg, DPI 1): 4.4 ± 0.5 ×10^−10 ng/μL
fecal C. parvum DNA load (NSC10447 250 mg/kg, DPI 2): 7.3 ± 0.2 ×10^−10 ng/μL
fecal C. parvum DNA load (NSC10447 250 mg/kg, DPI 3): 1.0 ± 0.1 ×10^−8 ng/μL
fecal C. parvum DNA load (NSC10447 250 mg/kg, DPI 4): 1.2 ± 0.1 ×10^−7 ng/μL
fecal C. parvum DNA load (NSC10447 250 mg/kg, DPI 5): 1.2 ± 0.1 ×10^−6 ng/μL
fecal C. parvum DNA load (NSC10447 250 mg/kg, DPI 6): 4.8 ± 0.2 ×10^−6 ng/μL
fecal C. parvum DNA load (NSC10447 250 mg/kg, DPI 7): 1.9 ± 0.2 ×10^−5 ng/μL
fecal C. parvum DNA load (NSC10447 250 mg/kg, DPI 8): 4.7 ± 0.1 ×10^−5 ng/μL
fecal C. parvum DNA load (NSC10447 500 mg/kg, DPI 1): 1.0 ± 0.5 ×10^−10 ng/μL
fecal C. parvum DNA load (NSC10447 500 mg/kg, DPI 2): 9.4 ± 0.2 ×10^−10 ng/μL
fecal C. parvum DNA load (NSC10447 500 mg/kg, DPI 3): 6.7 ± 0.6 ×10^−9 ng/μL
fecal C. parvum DNA load (NSC10447 500 mg/kg, DPI 4): 1.4 ± 0.1 ×10^−7 ng/μL
fecal C. parvum DNA load (NSC10447 500 mg/kg, DPI 5): 1.6 ± 0.1 ×10^−6 ng/μL
fecal C. parvum DNA load (NSC10447 500 mg/kg, DPI 6): 5.9 ± 0.4 ×10^−6 ng/μL
fecal C. parvum DNA load (NSC10447 500 mg/kg, DPI 7): 9.3 ± 0.2 ×10^−6 ng/μL
fecal C. parvum DNA load (NSC10447 500 mg/kg, DPI 8): 3.0 ± 0.4 ×10^−5 ng/μL
fecal C. parvum DNA load (NSC10447 1000 mg/kg, DPI 1): 1.2 ± 0.2 ×10^−9 ng/μL
fecal C. parvum DNA load (NSC10447 1000 mg/kg, DPI 2): 3.0 ± 0.7 ×10^−9 ng/μL
fecal C. parvum DNA load (NSC10447 1000 mg/kg, DPI 3): 6.4 ± 0.2 ×10^−9 ng/μL
fecal C. parvum DNA load (NSC10447 1000 mg/kg, DPI 4): 1.1 ± 0.1 ×10^−7 ng/μL
fecal C. parvum DNA load (NSC10447 1000 mg/kg, DPI 5): 1.3 ± 0.1 ×10^−6 ng/μL
fecal C. parvum DNA load (NSC10447 1000 mg/kg, DPI 6): 5.6 ± 0.4 ×10^−6 ng/μL
fecal C. parvum DNA load (NSC10447 1000 mg/kg, DPI 7): 6.3 ± 0.4 ×10^−6 ng/μL
fecal C. parvum DNA load (NSC10447 1000 mg/kg, DPI 8): 1.2 ± 0.8 ×10^−6 ng/μL
